These results are taken from patent publication US12128028B2, “Heterocyclic sulfonamide derivatives and pharmaceutical uses thereof” (METRION BIOSCIENCES LIMITED, priority 2018, dated 2024).

human Kv1.3, sequence (P22001 whole entry): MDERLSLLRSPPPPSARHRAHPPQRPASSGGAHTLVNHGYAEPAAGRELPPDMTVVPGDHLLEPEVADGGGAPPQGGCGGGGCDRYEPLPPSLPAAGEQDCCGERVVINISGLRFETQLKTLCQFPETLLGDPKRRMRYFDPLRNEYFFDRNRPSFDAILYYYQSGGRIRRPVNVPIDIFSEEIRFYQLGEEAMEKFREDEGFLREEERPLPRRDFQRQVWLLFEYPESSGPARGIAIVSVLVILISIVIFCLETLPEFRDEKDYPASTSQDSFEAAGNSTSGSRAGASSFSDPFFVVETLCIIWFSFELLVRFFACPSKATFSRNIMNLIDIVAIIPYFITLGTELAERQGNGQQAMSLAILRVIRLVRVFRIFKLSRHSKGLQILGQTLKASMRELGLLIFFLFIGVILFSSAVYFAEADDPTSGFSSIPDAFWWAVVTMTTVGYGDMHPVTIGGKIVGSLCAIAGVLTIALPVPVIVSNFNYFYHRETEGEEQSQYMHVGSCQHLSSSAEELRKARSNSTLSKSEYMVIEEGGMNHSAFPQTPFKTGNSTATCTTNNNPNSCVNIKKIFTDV

This test addresses human Kv1.3 (Homo sapiens (Human), UniProt P22001). The experiment in a line: Kv1.3 potency evaluation, automated patch clamp electrophysiology (QPatch HT) in CHO-Kv1.3 cells. The test is classed as cell-based. As to conditions: whole-cell QPatch HT, % inhibition of charge, step to +30 mV, four concentrations, N≥3 cells, read-out: hKv1.3 IC50. From the text:
Biological Assays Kv1.3 Potency Evaluation Electrophysiology Recordings
A proprietary Chinese hamster ovary cell line stably expressing exogenous human a-subunits of Kv1.3 (CHO-Kv1.3) channel, validated biophysically and pharmacologically in house, was used to assess the ability of test compounds to block Kv1.3 currents using automated patch clamp electrophysiology. The QPatch HT system (Sophion Bioscience A/S, Denmark) was used with the conventional whole-cell configuration. This system is an automated, chip-based planar patch clamp device allowing for up to 48 parallel independent experiments in one experimental assay run. Cells are added to each well and drawn by suction onto a small aperture to obtain a Gigaohm seal between the cell membrane and treated silicon surface, and whole-cell recordings initiated after access is achieved by suction and/or voltage pulses. The QPatch HT uses static perfusion, whereby a small volume of recording solution or drug is added to a reservoir on the chip and the solution perfuses across the cell through quartz-lined microfluidic channels; this solution is removed by capillary action when the next sample application is made.
CHO-Kv1.3 cells were prepared for experiments by dissociation from T175 cell culture flasks using trypsin-EDTA (0.05%), cells were kept in serum free media in the cell hotel on board the QPatch HT. These cells were sampled, washed and re-suspended in extracellular recording solution by the QPatch HT immediately before application to the recording well site on the chip. Experiments were performed using the following solutions; extracellular solution contained (in mM); 150 NaCl, 10 KCl, 1 MgCl2, 3 CaCl2), 10 Glucose and 10 HEPES (pH 7.4, NaOH) and intracellular solution contained (in mM); 20 KCl, 120 KF, 10 HEPES, 10 EGTA, 5 ATP (pH 7.2, KOH).
The potency (Inhibitory Concentration 50%, IC50) of synthesized compounds against Kv1.3 was determined from concentration-response relationships established by cumulatively applying four escalating concentrations of test compound to an individual cell and a minimum of N≥3 individual cells of data per compound were used to generate the IC50 value.
On achieving the whole-cell configuration; two additions of vehicle (0.1-0.3% DMSO v/v) were applied to each cell in two bolus additions with a two minute recording period between each addition (four minutes total recording time). Following the vehicle period, four concentrations of test sample were applied as two bolus additions per test concentration at two minute intervals, and the effects on current measured during the four minute recording period.
Currents were elicited using a single step voltage protocol. From a holding potential of −80 mV the cell is depolarised to +30 mV (500 ms) resulting in an outward current before finally repolarising the cell by returning to the holding potential. The command voltage was applied at a frequency of 0.067 Hz throughout the duration of the experiment. For each sweep of the voltage protocol membrane current and the passive properties of the individual cells were recorded by QPatch assay software (version 5.2). Cursors were placed to calculate the charge (integral of the current recorded during cursor interval) between 2-490 ms (0.4-99%) of the 500 ms step to +30 mV.
The % inhibition of charge for each test concentration application period was calculated as the reduction in mean charge at the end of each concentration test period relative to the charge value measured at the end of the control (i.e. vehicle) period. Sigmoidal concentration response curves (four parameter logistic curve) were fitted to the % inhibition rom which the IC50 was determined. Curve fits were constrained at 0 and 100%.
As for `CC(F)(F)CCS(=O)(=O)N(Cc1ccc(Cl)c(Cl)c1)C12CC(C3=NC(C)(C)[C@H](C(=O)NC45CC(C4)C5)N3)(C1)C2` (mixture of isomers) [Example 74], the 50% inhibitory concentration (IC50) is 0.058 µM. Under `CC1(C)N=C(C23CC(N(Cc4ccc(Cl)c(F)c4)S(=O)(=O)c4ccccc4)(C2)C3)N[C@H]1C(=O)NC1CC1C(F)(F)F` (mixture of isomers) [Example 75] stands 0.059 µM; under `CC1(C)N=C(C23CC(N(Cc4ccc(Cl)cc4)S(=O)(=O)c4ccccc4)(C2)C3)N[C@H]1C(=O)N1CCC(F)(F)CC1` (mixture of isomers) [Example 76], 0.06 µM; under `CC1(C)N=C(C23CC(N(Cc4ccc(Cl)c(F)c4)S(=O)(=O)c4ccccc4)(C2)C3)N[C@H]1C(=O)N1C2CCC1CC(F)(F)C2` (mixture of isomers) [Example 77], 0.06 µM. Under `CN(C(=O)[C@@H]1NC(C23CC(N(Cc4ccc(Cl)c(F)c4)S(=O)(=O)c4ccccc4)(C2)C3)=NC1(C)C)C1CC(C(F)F)C1` (mixture of isomers) [Example 78] stands 0.06 µM; under `CC1(C)N=C(C23CC(N(Cc4ccc(Cl)c(F)c4)S(=O)(=O)c4ccccc4)(C2)C3)N[C@H]1C(=O)NCCC(F)F` (mixture of isomers) [Example 79], 0.06 µM; under `CCCCCS(=O)(=O)N(Cc1ccc(Cl)cc1)C12CC(C3=NC(C)(C)[C@H](C(=O)NCCC(F)(F)F)N3)(C1)C2` (mixture of isomers) [Example 80], 0.061 µM. Consider `CC1(C)N=C(C23CC(N(Cc4ccc(Cl)c(F)c4)S(=O)(=O)c4ccccc4)(C2)C3)N[C@H]1C(=O)N1CC2CC2C1` (mixture of isomers) [Example 81], for which the IC50 was found to be 0.061 µM.

Take `CC1(C)N=C(C23CC(N(Cc4ccc(Cl)c(F)c4)S(=O)(=O)c4ccccc4)(C2)C3)N[C@H]1C(=O)N1CC2CC(F)(F)CC2C1` (mixture of isomers) [Example 82]: the half-maximal inhibitory concentration (IC50) is 0.061 µM.

As to `CN(C[C@H]1CC1(F)F)C(=O)[C@@H]1NC(C23CC(N(Cc4ccc(Cl)c(F)c4)S(=O)(=O)c4ccccc4)(C2)C3)=NC1(C)C` (mixture of isomers) [Example 83], the IC50 worked out at 0.061 µM. Next, `CC1(C)N=C(C23CC(N(Cc4ccc(Cl)c(F)c4)S(=O)(=O)c4ccccc4)(C2)C3)N[C@H]1C(=O)NC1CC(C(F)F)C1` (mixture of isomers) [Example 84]: 0.061 µM; `C[C@H]1CCN(C(=O)[C@@H]2NC(C34CC(N(Cc5ccc(Cl)c(F)c5)S(=O)(=O)c5ccccc5)(C3)C4)=NC2(C)C)C1` (mixture of isomers) [Example 85]: 0.062 µM; `CC1(C)N=C(C23CC(N(Cc4ccc(Cl)c(Cl)c4)S(=O)(=O)c4ccccc4)(C2)C3)N[C@H]1C(=O)N1CCC(F)(F)CC1` (mixture of isomers) [Example 86]: 0.062 µM.

As for `CC1(C)N=C(C23CC(N(Cc4ccc(Cl)c(F)c4)S(=O)(=O)c4ccccc4)(C2)C3)N[C@H]1C(=O)N1CC2(CCC2)C1` (mixture of isomers) [Example 87], the IC50 was 0.063 µM. Turning to `CC1(C)N=C(C23CC(N(Cc4ccc(Cl)c(F)c4)S(=O)(=O)c4ccccc4)(C2)C3)N[C@H]1C(=O)N1CC2CCC(C1)C2(F)F` (mixture of isomers) [Example 88], the IC50 stood at 0.063 µM.

Regarding `CC1(C)N=C(C23CC(N(Cc4ccc(Cl)c(F)c4)S(=O)(=O)c4ccccc4)(C2)C3)N[C@H]1C(=O)NC1CC(C(F)F)C1` (mixture of isomers) [Example 89], the IC50 stood at 0.063 µM. Next, `CC1(C)N=C(C23CC(N(Cc4ccc(Cl)cc4)S(=O)(=O)c4ccn(C5CC5)n4)(C2)C3)N[C@H]1C(=O)NCCC(F)(F)F` (mixture of isomers) [Example 90]: 0.064 µM; `CC1(C)N=C(C23CC(N(Cc4ccc(Cl)c(F)c4)S(=O)(=O)c4ccccc4)(C2)C3)N[C@H]1C(=O)N1CCC(F)(F)C1` (mixture of isomers) [Example 91]: 0.064 µM. Next, `CC1(C)N=C(C23CC(N(Cc4ccc(Cl)cc4)S(=O)(=O)CCCF)(C2)C3)N[C@H]1C(=O)NCCC(F)(F)F` (mixture of isomers) [Example 92]: 0.064 µM; `CC(F)(F)CCS(=O)(=O)N(Cc1ccc(Cl)cc1)C12CC(C3=NC(C)(C)[C@H](C(=O)NCCC(F)(F)F)N3)(C1)C2` (mixture of isomers) [Example 93]: 0.064 µM. Under `CC1(C)N=C(C23CC(N(Cc4ccc(Cl)c(F)c4)S(=O)(=O)c4ccccc4)(C2)C3)N[C@H]1C(=O)N1CCC12CC(F)(F)C2` (mixture of isomers) [Example 94] stands 0.064 µM. Consider `CN(CC(C)(C)F)C(=O)[C@@H]1NC(C23CC(N(Cc4ccc(Cl)c(F)c4)S(=O)(=O)c4ccccc4)(C2)C3)=NC1(C)C` (mixture of isomers) [Example 95], for which the IC50 was determined as 0.064 µM. On to `CCCS(=O)(=O)N(Cc1ccc(Cl)c(Cl)c1)C12CC(C3=NC(C)(C)[C@H](C(=O)N4CCC(F)(F)CC4)N3)(C1)C2` (mixture of isomers) [Example 96], for which the IC50 was 0.065 µM. Consider `CC1(C)N=C(C23CC(N(Cc4ccc(Cl)c(F)c4)S(=O)(=O)c4ccccc4)(C2)C3)N[C@H]1C(=O)N1CCCC(F)(F)C1` (mixture of isomers) [Example 98], for which the IC50 stood at 0.066 µM.

Take `CC1(C)N=C(C23CC(N(Cc4ccc(Cl)cc4)S(=O)(=O)c4ccccc4C#N)(C2)C3)N[C@H]1C(=O)NCCC(F)(F)F` (mixture of isomers) [Example 99]: the IC50 worked out at 0.067 µM. Under `CCN(CCC(F)(F)F)C(=O)[C@@H]1NC(C23CC(N(Cc4ccc(Cl)c(F)c4)S(=O)(=O)c4ccccc4)(C2)C3)=NC1(C)C` (mixture of isomers) [Example 100] stands 0.067 µM. Under `CC1(C)N=C(C23CC(N(Cc4ccc(Cl)cc4)S(=O)(=O)c4ccccc4)(C2)C3)N[C@H]1C(=O)NC1CC(C(F)F)C1` (mixture of isomers) [Example 101] stands 0.067 µM; under `CC1(C)N=C(C23CC(N(Cc4ccc(Cl)cc4)S(=O)(=O)CCCCF)(C2)C3)N[C@H]1C(=O)NCCC(F)(F)F` (mixture of isomers) [Example 102], 0.068 µM. Next, `CC1(C)N=C(C23CC(N(Cc4ccc(Cl)c(Cl)c4)S(=O)(=O)CCC(F)F)(C2)C3)N[C@H]1C(=O)NCC1CC1(F)F` (mixture of isomers) [Example 103]: 0.068 µM; `CC1(C)N=C(C23CC(N(Cc4ccc(Cl)c(F)c4)S(=O)(=O)c4ccccc4)(C2)C3)N[C@H]1C(=O)NC1CCC(F)(F)CC1` (mixture of isomers) [Example 104]: 0.069 µM. In the case of `CC1(C)N=C(C23CC(N(Cc4ccc(Cl)cc4)S(=O)(=O)CC4CCC4)(C2)C3)N[C@H]1C(=O)NCCC(F)(F)F` (mixture of isomers) [Example 105], the IC50 was determined as 0.069 µM. Next, `CC(C)(C)CNC(=O)[C@@H]1NC(C23CC(N(Cc4ccc(Cl)c(Cl)c4)S(=O)(=O)CCC(F)F)(C2)C3)=NC1(C)C` (mixture of isomers) [Example 106]: 0.07 µM; `CC1(C)N=C(C23CC(N(Cc4ccc(Cl)cc4)S(=O)(=O)c4ccccc4Cl)(C2)C3)N[C@H]1C(=O)NCCC(F)(F)F` (mixture of isomers) [Example 107]: 0.071 µM; `CC1(C)N=C(C23CC(N(Cc4ccc(Cl)c(F)c4)S(=O)(=O)c4ccccc4)(C2)C3)N[C@H]1C(=O)NCCCC(F)(F)F` (mixture of isomers) [Example 108]: 0.071 µM.
